Where “and” joins values, the source holds several entries; their conditions need not be identical. Identical values can stand only once. Entries after “also recorded” stand apart in the source; their conditions may differ. Like-named read-outs stand apart in the source and are kept apart here.
Columns and labels:
[1] = test system: Pf3D7; assay: SYBR green I antiplasmodial growth inhibition assay; assay type: cell-based; conditions: Plasmodium falciparum
[2] = test system: PfCam3.1^R539T (MRA1240); assay: as above; assay type: cell-based; conditions: Plasmodium falciparum
[3] = test system: PfINDO; assay: as above; assay type: cell-based; conditions: Plasmodium falciparum
[4] = MTT cytotoxicity assay; assay type: cell-based, Human; conditions: human, HEK293 cells
[5] = MTT cytotoxicity assay; assay type: cell-based, Human; conditions: human, HUH-7 cells
[6] = test system: P. falciparum (MRA1240); assay: Fixed-ratio drug combination assay; assay type: cell-based, Plasmodium falciparum; conditions: in combination with PYR, MFQ, and ART
[7] = test system: P. falciparum strains (Pf3D7, PfINDO, PfCam3.1^R539T); assay: SYBR green I antiplasmodial assay, several strains stated together; assay type: cell-based; conditions: Plasmodium falciparum, read-out: IC50s against all three strains of Plasmodium
[8] = target: T1, PfGAP50 (Plasmodium falciparum, UniProt Q8I2X3); assay: Surface plasmon resonance, PfGAP50 immobilized on CM5 chip, 1:1 binding model; conditions: KD (SPR, GAP50), 1:1 Langmuir binding model
T1 sequence (Q8I2X3 24-365 limits assumed): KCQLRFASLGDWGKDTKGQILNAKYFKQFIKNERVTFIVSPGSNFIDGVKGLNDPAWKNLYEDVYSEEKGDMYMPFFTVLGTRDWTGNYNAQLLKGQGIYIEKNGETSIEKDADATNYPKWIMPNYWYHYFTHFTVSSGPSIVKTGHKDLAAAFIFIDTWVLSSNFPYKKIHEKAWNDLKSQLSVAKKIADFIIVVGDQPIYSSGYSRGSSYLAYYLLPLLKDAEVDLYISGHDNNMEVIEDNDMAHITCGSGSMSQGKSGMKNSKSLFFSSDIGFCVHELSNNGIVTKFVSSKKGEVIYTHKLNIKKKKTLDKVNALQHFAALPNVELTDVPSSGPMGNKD

[9] = 700 mg dosage in humans, MDR-TB treatment; cited from earlier work
[10] = test system: PfINDO late schizonts; assay: Egress/invasion inhibition assay; assay type: cell-based, Plasmodium falciparum; conditions: segmental schizonts, 8 h at 2× IC50, then 48 h drug free
[11] = test system: PfINDO; assay: Giemsa microscopy of parasite morphology after treatment at IC50; assay type: cell-based, Plasmodium falciparum; conditions: ring-stage parasites (6–12 h p.i.) treated at IC50 up to 57 h
[12] = test system: P. bergheiANKA; assay: In vivo antimalarial study; set-up: species or system mice; conditions: 50 mg/kg oral, 4 consecutive days
[13] = test system: PfCam3.1^R539T early rings (0–3 h p.i.); assay: Ring-stage survival assay; assay type: cell-based, Plasmodium falciparum; conditions: 10× IC50, 6 h treatment, 66 h recovery
[14] = test system: HEK293; assay: MTT cytotoxicity assay; assay type: cell-based, Human; conditions: for selectivity index for P. falciparum parasites: human kidney and liver cell lines vs parasite; for Selectivity index A: CC50 HEK293/IC50PfINDO
[15] = test system: HUH-7; assay: MTT cytotoxicity assay; assay type: cell-based, Human; conditions: CC50PfHUH7/IC50PfINDO
[16] = 3D7, read-out: IC50 (nM) against Pf strains 3D7
[17] = read-out: IC50 (nM) against Pf strains Cam3.1^R539T
[18] = read-out: IC50 (nM) against Pf strains INDO

## C[C@@H]1CC[C@H]2[C@@H](C)C(=O)O[C@@H]3O[C@@]4(C)CC[C@@H]1[C@]32OO4 [Artemisinin]
[1]; [16]
  IC50: 13 ± 4 nM
[2]; [17]
  IC50: 15 ± 2 nM
[3]; [18]
  IC50: 10 ± 2 nM
[4]
  CC50 at 24 h: > 100000 nM
[5]
  CC50 at 24 h: > 100000 nM

## COc1nc2ccc(Br)cc2cc1[C@@H](c1ccccc1)[C@@](O)(CCN(C)C)c1cccc2ccccc12 [Bedaquiline, (1R,2S)-1-(6-bromo-2-methoxyquinolin-3-yl)-4-(dimethylamino)-2-naphthalen-1-yl-1-phenylbutan-2-ol]
[6]
  interaction by average ∑FIC: additive (∑FIC 1–2.0)
[1]; [16]
  IC50: 1210 ± 22.4 nM
[7]
  IC50: ≤ 1500 nM
[8]
  Kd: < 75000 nM and 9270 nM
[9]
  Cmax: 6470 ng/mL
[10]
  effect on merozoite egress and invasion: schizontocidal activity; also recorded: completely prevented invasion/schizont rupture
[2]; [17]
  IC50: 769 ± 73.6 nM
[11]
  effect on parasite morphology and development: permitted parasites to develop normally while preventing merozoites from invading
[12]
  mice surviving / cured: three out of seven
  suppression of % parasitemia: substantial suppression of parasitemia; also recorded: complete suppression of % parasitemia by day 19
[4]
  CC50 at 24 h: > 400000 nM
[13]
  effect on early rings in RSA: showed activity against early rings
[5]
  CC50 at 24 h: > 400000 nM

## O=C1[C@H](CC[C@H](O)c2ccc(F)cc2)[C@@H](c2ccc(O)cc2)N1c1ccc(F)cc1 [MMV1581377, (3R,4S)-1-(4-fluorophenyl)-3-[(3S)-3-(4-fluorophenyl)-3-hydroxypropyl]-4-(4-hydroxyphenyl)azetidin-2-one]
[8]
  Kd: 1160 nM

## N=C(N)NCCCCC(=O)Nc1cc(C(F)(F)F)cc(NC(=O)c2cc(C(=O)Nc3cc(C(F)(F)F)cc(NC(=O)CCCCNC(=N)N)c3O[C@@H]3CCNC3)ncn2)c1O[C@@H]1CCNC1 [Brilacidin, 4-N,6-N-bis[3-(5-carbamimidamidopentanoylamino)-2-[(3R)-pyrrolidin-3-yl]oxy-5-(trifluoromethyl)phenyl]pyrimidine-4,6-dicarboxamide]
[6]
  interaction by average ∑FIC: additive (∑FIC 1–2.0)
[1]; [16]
  IC50: 405 ± 63 nM
[7]
  IC50: ≤ 1500 nM
[8]
  Kd: < 75000 nM and 2810 nM
[10]
  effect on merozoite egress and invasion: completely prevented invasion/schizont rupture
[2]; [17]
  IC50: 728 ± 65.2 nM
[11]
  effect on parasite morphology and development: partial suppression of invasion
[3]; [18]
  IC50: 634 ± 153 nM
[14]
  selectivity index for P. falciparum parasites: > 100 fold
[4]
  CC50 at 24 h: > 200000 nM
[13]
  effect on early rings in RSA: cause retardation in the growth cycle but are not able to kill early rings
[5]
  CC50 at 24 h: > 200000 nM

## NC(N)=Nc1ccc(-c2ccc(-c3ccc(N=C(N)N)c(Cl)c3)o2)cc1Cl [MMV688271, 2-[2-chloro-4-[5-[3-chloro-4-(diaminomethylideneamino)phenyl]furan-2-yl]phenyl]guanidine]
[6]
  interaction by average ∑FIC: additive (∑FIC 1–2.0)
[1]; [16]
  IC50: 258 ± 54.2 nM
[7]
  IC50: ≤ 1500 nM
[8]
  Kd: < 75000 nM and 20000 nM
[10]
  effect on merozoite egress and invasion: schizontocidal activity; also recorded: completely prevented invasion/schizont rupture
[2]; [17]
  IC50: 387 ± 39.6 nM
[11]
  effect on parasite morphology and development: inhibited schizont egression
[3]; [18]
  IC50: 284 ± 24.7 nM
[14]
  Selectivity index A: 478.31
  selectivity index for P. falciparum parasites: > 100 fold
[4]
  CC50 at 24 h: 119000 ± 33700 nM
[5]
  CC50 at 24 h: 29600 ± 3760 nM
[15]
  Selectivity index B: 119.08

## Oc1cccc(C(Nc2nccs2)c2ccc3cccnc3c2O)c1 (centres unmarked) [MMV642550, 7-[(3-hydroxyphenyl)-(1,3-thiazol-2-ylamino)methyl]quinolin-8-ol]
[1]; [16]
  IC50: 393 ± 6.45 nM
[7]
  IC50: ≤ 1500 nM
[8]
  Kd: < 75000 nM
[10]
  effect on merozoite egress and invasion: only partial inhibition of parasite invasion
[10]; listed as 642550
  effect on merozoite egress and invasion: slowed the schizont rupture
[2]; [17]
  IC50: 1400 ± 97 nM
[11]
  effect on parasite morphology and development: permitted Pf development
[3]; [18]
  IC50: 986 ± 159 nM
[14]
  selectivity index for P. falciparum parasites: > 100 fold
[4]
  CC50 at 24 h: > 200000 nM
[5]
  CC50 at 24 h: > 200000 nM

## CC(C)(C)NC(=O)[C@@H]1CN(Cc2cnc3occc3c2)CCN1C[C@@H](O)C[C@@H](Cc1ccccc1)C(=O)N[C@H]1c2ccccc2C[C@H]1O [MMV1782353, (2S)-1-[(2S,4R)-4-benzyl-2-hydroxy-5-[[(1S,2R)-2-hydroxy-2,3-dihydro-1H-inden-1-yl]amino]-5-oxopentyl]-N-tert-butyl-4-(furo[2,3-b]pyridin-5-ylmethyl)piperazine-2-carboxamide]
[1]; [16]
  IC50: 670 ± 70.2 nM
[1]; read-out: IC50 Pf3D7
  IC50: < 1000 nM
[10]
  effect on merozoite egress and invasion: only partial inhibition of parasite invasion
[10]; listed as 1782353
  effect on merozoite egress and invasion: slowed the schizont rupture
[2]; [17]
  IC50: 14300 ± 210 nM
[2]; read-out: IC50 PfCam3.1^R539T
  IC50: > 1000 nM
[11]
  effect on parasite morphology and development: permitted Pf development
[3]; [18]
  IC50: 562 ± 171 nM
[3]; read-out: IC50 PfINDO
  IC50: < 1000 nM
[14]
  selectivity index for P. falciparum parasites: > 100 fold
[4]
  CC50 at 24 h: > 200000 nM
[5]
  CC50 at 24 h: > 200000 nM

## CCN(CC)CCCC(C)Nc1ccnc2cc(Cl)ccc12 (centres unmarked) [Chloroquine]
[1]; [16]
  IC50: 14 ± 5 nM
[2]; [17]
  IC50: 55 ± 4 nM
[3]; [18]
  IC50: 290 ± 20 nM
[14]
  Selectivity index A: 157.55
[4]
  CC50 at 24 h: 45700 ± 3120 nM
[5]
  CC50 at 24 h: 58500 ± 4730 nM
[15]
  Selectivity index B: 201.86
